Laboratory results from patent US10668055B2, “Cancer treatment using combinations of ERK and RAF inhibitors” (BIOMED VALLEY DISCOVERIES, INC., priority 2013, dated 2020).

Tests used:
[1] = system: G-361; experiment: Single agent proliferation assay (CellTiter-Glo, 72 h); type: cell-based; details: Homo sapiens, G-361, 72 h
Description: (§1) Cells were seeded in 96-well plates at the densities and media conditions indicated in Table 17 and allowed to adhere overnight prior to addition of compound or vehicle control. Compounds were prepared from DMSO stocks to give the desired final concentrations. The final DMSO concentration was constant at 0.1%. Test compounds were incubated with the cells for 72 h at 37° C., 5% CO2 in a humidified atmosphere. CellTiter-Glo® reagent (Promega, Madison, Wis.) was added according to manufacturer's instructions and luminescence detected using the BMG FLUOstar plate reader (BMG Labtech, Ortenberg, Germany). The average media only background value was deducted and the data analysed using a 4-parameter logistic equation in GraphPad Prism (GraphPad Software, La Jolla, Calif.).

[2] = system: A375; experiment: as above; type: cell-based, human; details: Homo sapiens, A-375; A375, 72 h
Description: as §1

[3] = system: MAPK signaling pathway in A375 and HCT116 cells; details: Morris et al., 2013; cited from earlier work
[4] = system: A375 cells; experiment: Combination study, 10×8 dose matrix, Alamar Blue / CellTiter-Glo, Bliss additivity model; type: cell-based, human; details: single agent
Description: For combination studies, A375 cells (ATCC) were seeded into triplicate 96-well plates at a cell density of 3000 cells/well in DMEM plus 10% FBS and allowed to adhere overnight prior to addition of test compound or vehicle control. Combinations were tested using a 10×8 dose matrix with a final DMSO concentration of 0.2%. A 96 hour assay incubation period followed, with subsequent addition of Alamar Blue 10% (v/v) and 4 hours incubation prior to reading on a fluorescent plate reader. After reading Alamar Blue, the medium/Alamar Blue mix was flicked off and 100 μl of CellTiter-Glo/PBS (1:1) added and the plates processed as per the manufacturer's instructions (Promega). Media only background values were subtracted before the data was analysed. The Bliss additivity model was then applied.
In brief, predicted fractional inhibition values for combined inhibition were calculated using the equation Cbliss=A+B−(A×B) where A and B are the fractional inhibitions obtained by drug A alone or drug B alone at specific concentrations. Cbliss is the fractional inhibition that would be expected if the combination of the two drugs were exactly additive. Cbliss values are subtracted from the experimentally observed fractional inhibition values to give an ‘excess over Bliss’ value. Excess over Bliss values greater than 0 indicate synergy, whereas values less than 0 indicate antagonism. […]

[5] = system: melanoma xenograft model derived from biopsies obtained from a patient; experiment: Melanoma xenograft model derived from patient biopsies after progression on vemurafenib; type: in vivo; details: model with acquired cross-resistance
[6] = system: A375 human melanoma xenograft; experiment: A375 in vivo study: tumor growth delay and regression responses; set-up: species or system athymic nude mice
Description: Female athymic nude mice (Crl:NU(Ncr)-Foxn/^nu, Charles River) were nine weeks old with a body weight (BW) range of 17.5 to 26.2 grams on Day 1 of the study. The animals were fed ad libitum water (reverse osmosis, 1 ppm CI), and NIH 31 Modified and Irradiated Lab Diet® consisting of 18.0% crude protein, 5.0% crude fat, and 5.0% crude fiber. The mice were housed on irradiated Enrich-o'cobs™ Laboratory Animal Bedding in static microisolators on a 12-hour light cycle at 20-22° C. (68-72° F.) and 40-60% humidity. The recommendations of the Guide for Care and Use of Laboratory Animals with respect to restraint, husbandry, surgical procedures, feed and fluid regulation, and veterinary care were complied with.
Tumor xenografts were initiated with A375 human melanomas by serial subcutaneous transplantation in athymic nude mice. On the day of tumor implant, each test mouse received a 1 mm^3 A375 fragment implanted subcutaneously in the right flank, and tumor growth was monitored as the average size approached the target range of 80 to 120 mm^3. Tumors were measured in two dimensions using calipers, and volume was calculated using the formula: […]
Ten days after tumor implantation, designated as Day 1 of the study, the animals were sorted into nine groups (Groups 1-9) each consisting of fifteen mice and one group (Group 10) consisting of ten mice. Individual tumor volumes ranged from 75 to 144 mm^3 and group mean tumor volumes were 110 or 111 mm^3.
On Day 1 of the study, mice were sorted into nine groups (Group 1-9) each consisting of fifteen mice and one group (Group 10) consisting of ten mice, and dosing was initiated according to the treatment plan summarized in Table 15 below. Each dose was given by oral gavage (p.o.) in a dosing volume of 10 mL/kg (0.2 mL per 20 grams of body weight), scaled to the body weight of each individual animal. The vehicle and dabrafenib doses were to be given once daily until study end (qd to end), whereas the BVD-523 doses were to be given twice daily until study end (bid to end). For bid dosing, dosing was initiated in the afternoon on Day 1, so that one dose was given on the first day (“first day 1 dose”).
Due to the striking response to combination treatment, dosing in Groups 2-5 was stopped on Day 20 in order to monitor tumor re-growth. Dosing was to be re-initiated in a group when the mean tumor burden reached 1000 mm^3. By Day 42, the 1000 mm^3 mean tumor burden had not been reached in any of the combination groups. Dosing was re-initiated to permit post-final dose serum and tumor sampling for pharmacokinetic analyses. […] The final dosing schedules are shown below in Table 16.
Tumors were measured using calipers twice per week, and each animal was euthanized when its tumor reached the pre-determined tumor volume endpoint of 2000 mm^3 or on the final day, whichever came first. Animals that exited the study for tumor volume endpoint were documented as euthanized for tumor progression (TP), with the date of euthanasia. The time to endpoint (TTE) for analysis was calculated for each mouse by the following equation:
[formula] where TTE is expressed in days, endpoint volume is expressed in mm^3, b is the intercept, and m is the slope of the line obtained by linear regression of a log-transformed tumor growth data set. The data set consists of the first observation that exceeded the endpoint volume used in analysis and the three consecutive observations that immediately preceded the attainment of this endpoint volume. The calculated TTE is usually less than the TP date, the day on which the animal was euthanized for tumor size. […] Any animal classified as having died from NTR (non-treatment-related) causes due to accident (NTRa) or due to unknown etiology (NTRu) were excluded from TTE calculations (and all further analyses). Animals classified as TR (treatment-related) deaths or NTRm (non-treatment-related death due to metastasis) were assigned a TTE value equal to the day of death. […]

[7] = A375 in vivo study: toxicity (body weight, deaths, side effects)
Text: Animals were weighed daily on Days 1-5, then twice per week until completion of the study. […] Individual body weight loss was monitored as per protocol, and any animal that exceeded the limits for acceptable body weight loss was euthanized. Group mean body weight loss also was monitored as per protocol. Dosing was to be suspended in any group that exceeded the limits for acceptable mean body weight loss. If mean body weight recovered, then dosing was to be resumed in that group, but at a lower dosage or less frequent dosing schedule.
Acceptable toxicity for the maximum tolerated dose (MTD) was defined as a group mean body-weight loss of less than 20% during the study and not more than 10% treatment-related (TR) deaths. […] A death was classified as non-treatment-related (NTR) if there was no evidence that death was related to treatment side effects. NTR deaths were further characterized based on cause of death. A death was classified as NTRa if it resulted from an accident or human error. […] A death was classified as NTRu if the cause of death was unknown and there was no available evidence of death related to treatment side effects, metastasis, accident or human error, although death due to treatment side effects cannot be excluded.

`CCCS(=O)(=O)Nc1ccc(F)c(C(=O)c2c[nH]c3ncc(-c4ccc(Cl)cc4)cc23)c1F` [Vemurafenib] showed an IC50 [1] of 248 nM and an IC50 [2] of 47 nM.
For `O=C(Nc1ccc2[nH]nc(-c3ccncc3)c2c1)[C@@H]1CCN(CC(=O)N2CCN(c3ccc(-c4ncccn4)cc3)CC2)C1` [SCH772984], the IC50 [1] is given as 180 nM, the “Autophosphorylation of ERK” value [3] is given as “inhibit autophosphorylation of ERK” and the IC50 [2] is given as 32 nM.
In the case of `CC(C)(C)c1nc(-c2cccc(NS(=O)(=O)c3c(F)cccc3F)c2F)c(-c2ccnc(N)n2)s1` [Dabrafenib], the IC50 [1] is reported as about 1.4 nM, the “Sensitivity of A375 cells (BRAF V600E)” value [4] is reported as “sensitive” and the IC50 [2] is reported as about 0.7 nM. For the same compound, the Anti-tumor response [5] was “insensitive”, the “% TGD” value ([6]; G6: 50 mg/kg po qd to end) was 75% and the “CR (complete regressions)” value ([6]; G6: 50 mg/kg po qd to end) was 0. The “Median TTE” value ([6]; G6: 50 mg/kg po qd to end) was 16.1 days, the “PR (partial regressions)” value ([6]; G6: 50 mg/kg po qd to end) was 0 and the T-C ([6]; G6: 50 mg/kg po qd to end) was 6.9 days. The “TFS (tumor free survivors)” value ([6]; G6: 50 mg/kg po qd to end) was 0, the “Tumors that attained the 2000 mm^3 endpoint volume” value ([6]; G6: 50 mg/kg po qd to end) was “All” and the “% TGD” value ([6]; G7: 100 mg/kg po qd to end) was 210%. For the same compound, the “CR (complete regressions)” value ([6]; G7: 100 mg/kg po qd to end) was 0, the “Median TTE” value ([6]; G7: 100 mg/kg po qd to end) was 28.5 days and the “PR (partial regressions)” value ([6]; G7: 100 mg/kg po qd to end) was 1. The T-C ([6]; G7: 100 mg/kg po qd to end) was 19.3 days, the “TFS (tumor free survivors)” value ([6]; G7: 100 mg/kg po qd to end) was 0 and the “Tumors that attained the 2000 mm^3 endpoint volume” value ([6]; G7: 100 mg/kg po qd to end) was 13/15. For the same compound, the “MTV (n) D45” value ([6]; G7: 100 mg/kg po qd to end, Day 45) was 282 (2) imd, the “PR (partial regressions)” value ([6]; G7: 100 mg/kg po qd to end, listed as dabrafenib) was “One and one” and the MTV ([6]; G7: 100 mg/kg po qd to end, two tumors remaining on Day 45) was 282 mm^3. The “Deaths NTR” value ([7]; G6: 50 mg/kg po qd to end) was 0, the “Deaths TR” value ([7]; G6: 50 mg/kg po qd to end) was 0 and the “Deaths NTR” value ([7]; G7: 100 mg/kg po qd to end) was 0. The “Deaths TR” value ([7]; G7: 100 mg/kg po qd to end) was 0 and the “Signs of treatment-related side effects” value ([7]; mono- and combination therapy groups) was “no noteworthy signs of treatment-related side effects”.
